Data taken from ChEMBL document CHEMBL1125071, “Quinazoline antifolate thymidylate synthase inhibitors: alkyl, substituted alkyl, and aryl substituents in the C2 position” (J Med Chem, 1990).
Converted amounts (≈) assume the structure as drawn.

Experiments:
L1210 = assay: Concentration required to inhibit 50 percent growth of L1210 mouse leukemia cells; format: functional, cell-based
[1] = pKa of nitrogen -1(N1) of the compound; too low to measure accurately; format: physicochemical
[2] = pKa of nitrogen -3(N3) of the compound; format: physicochemical
Thymidylate synthase = Thymidylate synthase (Mus musculus, UniProt P07607); assay: Concentration required for in vitro inhibition of thymidylate synthase
Thymidylate synthase, sequence (P07607 whole entry): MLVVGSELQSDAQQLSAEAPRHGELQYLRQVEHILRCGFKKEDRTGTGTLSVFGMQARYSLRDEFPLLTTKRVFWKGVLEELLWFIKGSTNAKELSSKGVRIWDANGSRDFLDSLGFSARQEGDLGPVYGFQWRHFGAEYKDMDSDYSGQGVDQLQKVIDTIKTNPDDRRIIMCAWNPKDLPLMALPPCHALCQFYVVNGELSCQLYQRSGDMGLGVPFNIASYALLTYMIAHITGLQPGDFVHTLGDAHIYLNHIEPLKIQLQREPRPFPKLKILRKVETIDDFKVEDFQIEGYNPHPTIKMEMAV

[3] = pKa of nitrogen -1(N1) of the compound; format: physicochemical
[4] = Solubility in […] M aqueous NaH2PO4 buffer at pH 7.0 and 25 degree C; format: physicochemical; conditions: 0.92 M aqueous NaH2PO4 buffer

Row | SMILES | IC50 (L1210) [nM] | IC50 (Thymidylate synthase) [nM] | also measured
1 | O=C(O)CC[C@H](NC(=O)c1ccc(N(CCF)Cc2ccc3nc(CF)[nH]c(=O)c3c2)cc1)C(=O)O | 1200 | – | –
2 | C#CCN(Cc1ccc2nc(C(F)F)nc(O)c2c1)c1ccc(C(=O)N[C@@H](CCC(=O)O)C(=O)O)cc1 | 24000 | – | –
3 | Cc1ccc2nc(C(F)F)nc(O)c2c1 | – | – | pKa [1]: < 2; pKa [2]: 7.2
4 | C#CCN(Cc1ccc2nc[nH]c(=O)c2c1)c1ccc(C(=O)N[C@@H](CCC(=O)O)C(=O)O)cc1 | 400 | – | –
5 | CCN(Cc1ccc2nc(CO)[nH]c(=O)c2c1)c1ccc(C(=O)N[C@@H](CCC(=O)O)C(=O)O)cc1 | 16000 | – | –
6 | CN(Cc1ccc2nc(CF)[nH]c(=O)c2c1)c1ccc(C(=O)N[C@@H](CCC(=O)O)C(=O)O)cc1 | 3 | 2920 | –
7 | COCCCN(Cc1ccc2nc(C)[nH]c(=O)c2c1)c1ccc(C(=O)N[C@@H](CCC(=O)O)C(=O)O)cc1 | > 100000 | 12900 | –
8 | Cc1nc2ccc(CN(CCCO)c3ccc(C(=O)N[C@@H](CCC(=O)O)C(=O)O)cc3)cc2c(=O)[nH]1 | 1240 | 540 | –
9 | Cc1ccc2nc(CF)nc(O)c2c1 | – | – | pKa [1]: < 2; pKa [2]: 8.5
10 | Cc1nc2ccc(CN(CCS)c3ccc(C(=O)N[C@@H](CCC(=O)O)C(=O)O)cc3)cc2c(=O)[nH]1 | > 100000 | 1760 | –
11 | Cc1ccc2nc(C(F)(F)F)nc(O)c2c1 | – | – | pKa [1]: < 2; pKa [2]: 5.9
12 | Cc1ccc2nc(C)nc(O)c2c1 | – | – | pKa [3]: 3.5; pKa [2]: 10.2
13 | C#CCN(Cc1ccc2nc(CSc3ncccn3)[nH]c(=O)c2c1)c1ccc(C(=O)N[C@@H](CCC(=O)O)C(=O)O)cc1 | 100000 | – | –
14 | Cc1nc2ccc(CN(CCBr)c3ccc(C(=O)N[C@@H](CCC(=O)O)C(=O)O)cc3)cc2c(=O)[nH]1 | 820 | 1300 | –
15 | Cc1nc2ccc(CN(C)c3ccc(C(=O)N[C@@H](CCC(=O)O)C(=O)O)cc3)cc2c(=O)[nH]1 | 110 | 300 | –
16 | C#CCN(Cc1ccc2nc(C)[nH]c(=O)c2c1)c1ccc(C(=O)N[C@@H](CCC(=O)O)C(=O)O)cc1 | 90 | – | solubility [4]: 3200 µg/mL (≈ 6.72 mM)
17 | CCN(Cc1ccc2nc(C)[nH]c(=O)c2c1)c1ccc(C(=O)N[C@@H](CCC(=O)O)C(=O)O)cc1 | 360 | 170 | –
18 | Cc1nc2ccc(CNc3ccc(C(=O)N[C@@H](CCC(=O)O)C(=O)O)cc3)cc2c(=O)[nH]1 | 70 | 4500 | –
19 | Cc1ccc2nc(N)nc(O)c2c1 | – | – | pKa [3]: 4.2; pKa [2]: 9.4

Second part, led by results:

Row | IC50 (L1210) [nM] | IC50 (Thymidylate synthase) [nM] | SMILES | also measured
20 | 48000 | – | C#CCN(Cc1ccc2nc(C(C)C)[nH]c(=O)c2c1)c1ccc(C(=O)N[C@@H](CCC(=O)O)C(=O)O)cc1 | –
21 | 700 | – | CCN(Cc1ccc2nc(CF)[nH]c(=O)c2c1)c1ccc(C(=O)N[C@@H](CCC(=O)O)C(=O)O)cc1 | –
22 | 240 | 500 | Cc1nc2ccc(CN(CCO)c3ccc(C(=O)N[C@@H](CCC(=O)O)C(=O)O)cc3)cc2c(=O)[nH]1 | –
23 | 1200 | 25000 | CC(=O)CN(Cc1ccc2nc(C)[nH]c(=O)c2c1)c1ccc(C(=O)N[C@@H](CCC(=O)O)C(=O)O)cc1 | –
24 | 400 | 240 | Cc1nc2ccc(CN(CCF)c3ccc(C(=O)N[C@@H](CCC(=O)O)C(=O)O)cc3)cc2c(=O)[nH]1 | –
25 | 20000 | – | O=C(O)CC[C@H](NC(=O)c1ccc(N(CCF)Cc2ccc3nc(CO)[nH]c(=O)c3c2)cc1)C(=O)O | –
26 | 6600 | – | C=CCN(Cc1ccc2nc(CO)[nH]c(=O)c2c1)c1ccc(C(=O)N[C@@H](CCC(=O)O)C(=O)O)cc1 | –
27 | 2500 | – | C#CCN(Cc1ccc2nc(CC)[nH]c(=O)c2c1)c1ccc(C(=O)N[C@@H](CCC(=O)O)C(=O)O)cc1 | –
28 | 3200 | 20000 | CCc1nc2ccc(CNc3ccc(C(=O)N[C@@H](CCC(=O)O)C(=O)O)cc3)cc2c(=O)[nH]1 | –
29 | 14500 | – | O=C(O)CC[C@H](NC(=O)c1ccc(N(CCO)Cc2ccc3nc(CO)[nH]c(=O)c3c2)cc1)C(=O)O | –
30 | 125000 | – | C#CCN(Cc1ccc2nc(CNC(C)=O)[nH]c(=O)c2c1)c1ccc(C(=O)N[C@@H](CCC(=O)O)C(=O)O)cc1 | –
31 | 40000 | 16300 | COCCN(Cc1ccc2nc(C)[nH]c(=O)c2c1)c1ccc(C(=O)N[C@@H](CCC(=O)O)C(=O)O)cc1 | –
32 | > 100000 | – | C#CCN(Cc1ccc2nc(C(F)(F)F)[nH]c(=O)c2c1)c1ccc(C(=O)N[C@@H](CCC(=O)O)C(=O)O)cc1 | –
33 | 13000 | – | CN(Cc1ccc2nc(CO)[nH]c(=O)c2c1)c1ccc(C(=O)N[C@@H](CCC(=O)O)C(=O)O)cc1 | –
34 | 370 | – | C#CCN(Cc1ccc2nc(CF)[nH]c(=O)c2c1)c1ccc(C(=O)N[C@@H](CCC(=O)O)C(=O)O)cc1 | –
35 | 170 | 480 | C=CCN(Cc1ccc2nc(C)[nH]c(=O)c2c1)c1ccc(C(=O)N[C@@H](CCC(=O)O)C(=O)O)cc1 | –
36 | 3400 | – | C#CCN(Cc1ccc2nc(N)[nH]c(=O)c2c1)c1ccc(C(=O)N[C@@H](CCC(=O)O)C(=O)O)cc1 | solubility [4]: 70 µg/mL (≈ 0.147 mM)
37 | > 100000 | – | C#CCN(Cc1ccc2nc(-c3ccccc3)[nH]c(=O)c2c1)c1ccc(C(=O)N[C@@H](CCC(=O)O)C(=O)O)cc1 | –
